Source: PMC4467156, “A new chemical inhibitor of angiogenesis and tumorigenesis that targets the VEGF signaling pathway upstream of Ras” (Oncotarget, 2015)
Like-named read-outs stand apart in the source and are kept apart here.

What was measured:
Type in all cases: cell-based
[1] = tested on: 3T3 cells; assay: Cell viability WST-1, 3T3; conditions: confluent 3T3, 24 h at 37°C
Description: Once they had reached confluency, cells were kept for 24 hours in medium supplemented with 0.5% FCS (LLC/2 and 3T3 cells) or 2.5% FCS (HUVEC and HMVEC-d cells), in the presence of COB223 at different concentrations. WST-1 assay (Roche Diagnostic, Meylan, France) was then performed according to the manufacturer's instructions.

[2] = tested on: HMEC-GFP spheroids; assay: Sprouting of HMEC-GFP spheroids into collagen gels; conditions: Homo sapiens
Description: To prepare spheroids, HMEC-GFP cells were seeded at 3000 cells/well in round-bottom 96-multiwell plates in DMEM 1 g/L glucose (Eurobio, Les Ulis, France) containing 0.25% methylcellulose. 48 h later, the spheroids were collected, transferred into flat-bottom 96-well plates and embedded in collagen gel (1.2 mg/mL type I collagen) prepared in a Iscove's modified Dulbecco's medium, supplemented with FGF-2 (10 ng/mL), 50 U/mL penicillin and 50 μg/mL streptomycin. Treatment with COB223 (10 and 20 μM) started right after spheroids were included in the collagen gels. Sprouting was allowed for 24 h at 37°C. Images were acquired by fluorescence microscopy and analysis of gel invasion was performed using the freeware Image J. Statistical analysis was performed using a Kruskal & Wallis test.
HMEC-GFP cells were developed as spheroids in an Iscove's modified Dulbecco's medium containing 0.2% methylcellulose in round-bottom 96-multiwell plate. Two days later, spheroids were collected and invasion was allowed in a Iscove's modified Dulbecco's medium, supplemented with 1.2 mg/mL collagen I, 50 U/mL Penicillin, 50 μg/mL streptomycin. Molecules (10 or 20 μM) or FGF-2 (10 ng/mL) were added in the preparation before collagen gelification.

[3] = tested on: 3T3-GFP cells; assay: Scratch wound closure assay, 3T3-GFP; conditions: wound closure after 24 h, 10% FCS, tested 3.125 μM to 100 μM
From the text: Using this assay, we screened the academic library of the University of Grenoble, which is composed of 1360 original molecules. Setting the threshold of significant responses at 75% of the maximal inhibition, we identified 80 inhibitory molecules. At this stage, we reasoned that molecules that would affect the cytoskeleton dynamics or the adhesion properties of any cell type would be positive in this assay but would not represent good candidates for further development. We thus decided to perform a secondary counterscreen of the first 80 selected compounds on GFP-expressing 3T3 fibroblasts (3T3-GFP) using the same scratch assay. We then focused our interest on the 5 molecules that inhibited more strongly HMEC-GFP than 3T3-GFP wound healing. […] We synthesized a series of 30 analogs and tested them at various concentrations both on HMEC-GFP and 3T3-GFP cells. […] Dansyl and naphthalimide aromatic groups, found in COB223 and COB227 respectively, appeared very efficient. The presence of the diaminomethyl group on dansyl is critical for the activity of COB223 as shown by the lower efficiency of COB235 (IC50 is 8 times higher than that of COB223). COB223 and COB227 contain a tert-butyloxycarbonyl function (BOC group) as a second hydrophobic group. Replacement of BOC by an amino group decreased the efficiency and the specificity (compare 05-102-L-B09 vs 05-06-L-D03, or COB227 vs COB228).
Confluent cell monolayers were wounded with a plastic pipet tip, washed gently with phosphate buffer saline (PBS) and treated with complete media containing molecules, as indicated. Cells were placed at 37°C into the incubator and photographed at indicated times. Quantitation of closure of the monolayer was performed using the NIH Image J program (http://rsbweb.nih.gov/ij/). Results are expressed as percentage of wound closure at t = 24 h as compared to the initial wound at t = 0 h.

CN(C)c1cccc2c(S(=O)(=O)NCCCN3CCN(CCCNC(=O)OC(C)(C)C)CC3)cccc12 [COB223, tert-Butyl 3-(4-(3-(5-(dimethylamino)naphthalene-1-sulfonamido)propyl)piperazin-1-yl) propylcarbamate]
cytotoxic concentrations [1]: > 50 µM
inhibition at 10 µM ([2]; 10 μM COB223, 10 ng/ml FGF-2, collagen I gel, read-out: inhibition of FGF-2-stimulated sprouting): 70%
inhibition at 10 µM ([2]; 10 μM COB223, collagen I gel, read-out: inhibition of basal sprouting): 50%
IC50 [3]: 25 µM
